For one data set, the target named is T1, recombinant human MMP-13 (Homo sapiens, UniProt P45452).
T1 construct: made in house
The data set can be described thus: In vitro metalloprotease inhibition, fluorogenic peptide substrate. Type of data set: biochemical. Particulars: for IC50: APMA-activated enzyme, room temperature, pH 7.5, substrate 4 μM.

For another data set, the target named is T2, recombinant human MMP-1 (Homo sapiens, UniProt P03956).
T2 construct: made in house; host or cells: transfected HT-1080 cells (provided by Dr. Howard Welgus, Washington University)
T2 sequence (P03956 100-469): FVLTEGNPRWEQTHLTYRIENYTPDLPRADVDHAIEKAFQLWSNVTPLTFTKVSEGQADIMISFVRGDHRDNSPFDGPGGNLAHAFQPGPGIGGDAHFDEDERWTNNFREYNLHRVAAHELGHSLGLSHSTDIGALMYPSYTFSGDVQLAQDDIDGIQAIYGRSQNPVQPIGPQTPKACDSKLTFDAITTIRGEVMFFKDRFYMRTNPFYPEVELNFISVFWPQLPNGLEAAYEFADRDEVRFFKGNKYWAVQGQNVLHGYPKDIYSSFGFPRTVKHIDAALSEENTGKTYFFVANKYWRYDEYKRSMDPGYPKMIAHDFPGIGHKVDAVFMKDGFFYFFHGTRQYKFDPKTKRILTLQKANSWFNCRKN
The description is as above. Type of data set: biochemical. Particulars: for IC50: APMA-activated enzyme, room temperature, pH 7.5, substrate 4 μM.

For data set [1], the system named is neovascularization of the corneal stroma. In words: In vivo angiogenesis assay (corneal micropocket). Particulars: mouse cornea, bFGF/sucralfate pellet, daily dosing, scored at day five; exemplary dose 50 mg/kg bid, po. On the procedure: The study of angiogenesis depends on a reliable and reproducible model for the stimulation and inhibition of a neovascular response. The corneal micropocket assay provides such a model of angiogenesis in the cornea of a mouse.
In this assay, uniformly sized Hydron™ pellets containing bFGF and sucralfate were prepared and surgically implanted into the stroma mouse cornea adjacent to the temporal limbus. The pellets were formed by making a suspension of 20 μL sterile saline containing 10 μg recombinant bFGF, 10 mg of sucralfate and 10 μL of 12 percent Hydron™ in ethanol. The slurry was then deposited on a 10×10 mm piece of sterile nylon mesh. […]
Mice were dosed on a daily basis for the duration of the assay. […] At day five, the degree of angiogenic inhibition was scored by viewing the neovascular progression with a slit lamp microscope.
The mice were anesthetized and the studied eye was once again proptosed. The maximum vessel length of neovascularization, extending from the limbal vascular plexus toward the pellet was measured. In addition, the contiguous circumferential zone of neovascularization was measured as clock hours, where 30 degrees of arc equals one clock hour. The area of angiogenesis was calculated as follows. […]
The studied mice were thereafter compared to control mice and the difference in the area of neovascularization was recorded.

Data set [2] relates to solid tumor cancers (colorectal, pancreatic, ovarian, prostate). The following applies: patients, cited from earlier work.

Where a name gives a salt, the structure may show the parent alone.

From the text for recombinant human MMP-13: MMP-13 was expressed in baculovirus as a proenzyme, and purified first over a heparin agarose column and then over a chelating zinc chloride column. The proenzyme was activated by APMA for use in the assay. […] The enzyme was also activated using APMA and was then purified over a hydroxamic acid column.

For `Cl.O=C(Nc1ccc(S(=O)(=O)CC2(C(=O)NO)CCNCC2)cc1)c1ccccc1` [Example 1, N-hydroxy-4-[[[4-(benzoylamino)phenyl]sulfonyl]methyl]-4-piperidinecarboxamide, monohydrochloride], the IC50 at recombinant human MMP-13 was 243 nM; on recombinant human MMP-1, over 10000 nM. Besides, on recombinant human MMP-13 (comment on Table 13), the “activity against MMP-13 (in words)” value is “moderate activity”. In addition, the “activity against MMP-1 (in words)” value at recombinant human MMP-1 (comment on Table 13) was “virtually unbound”.
With `O=C(NO)C1(CS(=O)(=O)c2ccc(Oc3ccccc3)cc2)CCN(CCc2ccccc2)CC1` [Example 2, N-Hydroxy-4-[[(4-phenoxyphenyl)sulfonyl]-methyl]-1-(2-phenylethyl)-4-piperidinecarboxamide, Monohydrochloride], the IC50 at recombinant human MMP-1 turned out to be 700 nM.
As for `COc1cccc(CN2CCC(CS(=O)(=O)c3ccc(Oc4ccccc4)cc3)(C(=O)NO)CC2)c1` [Example 3, N-Hydroxy-1-[(3-methoxyphenyl)methyl]-4-[[(4-phenoxyphenyl)sulfonyl]methyl]-4-piperidinecarboxamide, Monohydrochloride], the 50% inhibitory concentration (IC50) on recombinant human MMP-13 was determined as 0.4 nM; on recombinant human MMP-1, 330 nM.
For `C#CCN1CCC(CS(=O)(=O)c2ccc(Oc3ccccc3)cc2)(C(=O)NO)CC1` [Example 4, N-Hydroxy-4-[[(4-phenoxyphenyl)sulfonyl]-methyl]-1-(2-propynyl)-4-piperidinecarboxamide, Monohydrochloride], the IC50 at recombinant human MMP-13 was found to be 0.6 nM; at recombinant human MMP-1, 485 nM.
The matching figures for `CC(C)(C)OC(=O)N1CCC(CS(=O)(=O)c2ccc(Oc3ccccc3)cc2)(C(=O)NO)CC1` [Example 5, 1,1-Dimethylethyl Ester 4-[(Hydroxyamino)-carbonyl]-4-[[(4-phenoxyphenyl]sulfonyl]methyl]-1-piperidinecarboxylic Acid]: 0.2 nM and 475 nM.
Regarding `Cl.O=C(NO)C1(CS(=O)(=O)c2ccc(Oc3ccccc3)cc2)CCNCC1` [Example 6, N-Hydroxy-4-[[(4-phenoxyphenyl)sulfonyl]-methyl]-4-piperidinecarboxamide, Monohydrochloride], the IC50 on recombinant human MMP-13 turned out to be 8 nM; at recombinant human MMP-1, 2400 nM. In addition, the “inhibition of area of neovascularization versus control mice” value in data set [1] came out at 80.0%.
In the case of `C#CCN1CCC(CS(=O)(=O)c2ccc(Oc3ccc(C)c(C)c3)cc2)(C(=O)NO)CC1` [Example 7, N-Hydroxy-4-[[[4-(3,4-dimethylphenoxy)phenyl]sulfonyl]-methyl]-1-(2-propynyl)-4-piperidinecarboxamide, Monohydrochloride], the IC50 on recombinant human MMP-13 was determined as 0.85 nM.
Regarding `C#CCN1CCCC1(CS(=O)(=O)c1ccc(Oc2ccccc2)cc1)C(=O)NO` (stereo not drawn) [Example 8, N-Hydroxy-2-[[(4-phenoxyphenyl)sulfonyl]-methyl]-1-(2-propynyl)-2-pyrrolidine Carboxamide, Monohydrochloride], the concentration for half-maximal inhibition (IC50) on recombinant human MMP-13 came to 1.3 nM.
With `CNC(=O)[C@@H](NC(=O)[C@H](CC(C)C)[C@H](O)C(=O)NO)C(C)(C)C` [marimastat], the “effect on cancer-specific antigens used as surrogate markers for biological activity” value in data set [2] (Phase I/II studies, meta analysis) is on record as “dose-related reduction in the rise of cancer-specific antigens”. The “most common drug-related toxicity” value in data set [2] (clinical trials) was “musculoskeletal pain and stiffness”.
